Earlier results in patent publication US20100255105A1, “EXTENDED RELEASE PHARMACEUTICAL COMPOSITION COMPRISING METOPROLOL SUCCINATE” (ZAKLADY FARMACEUTYCZNE POLPHARMA S.A., priority 2009, published 2010).

Settings: water at 37° C.

- solubility in water: 276 mg/mL
SMILES: COCCc1ccc(OCC(O)CNC(C)C)cc1 (stereo not shown) [metoprolol succinate]
